Two compounds from US20060194315A1, “Compositions and methods for the control, differentiaton and/or manipulation of pluripotent cells through a gamma-secretase signaling pathway” (priority 2003, published 2006) can be followed below.

One assay deals with Hes1. Description: Real-time RT-PCR of Hes1 induction by EDTA in hES cells. The class given is cell-based, human. The method, then: Hes1 induction by EDTA treatment was monitored by real-time RT-PCR. Cultures of […] on Matrigel-coated 24-well plates were treated with either 0.5% DMSO or 50 μM DAPT in CM for 4 hours to overnight before induction by EDTA exposure. The wells were exposed to 2 mM EDTA in CM (with DMSO or DAPT) for 15 minutes at 37° C. EDTA was neutralized by addition of 4.9 mM CaCl2 and incubated for a further 1.5 hours. The cells were harvested with Trizol and RNA was extracted as described above. Real-time PCR was performed using TaqMan primers and probes (Applied Biosystems, Inc.) for Hes1 (primer sequences: […] ID NO: 17); […] ID NO:18); probe […] NO:19)) and normalized to GAPDH (kit from Applied Biosystems, Inc; cat. no. 402869). Reactions were run and monitored on an ABI7700 Sequence Detection System (Applied Bioysytems, Inc). Data was analyzed as described in Pfaffl et al., 2002 Nucleic Acids Research 30(9): […]. REST-XL (version 2) software was used to determine relative quantification of Hes1 gene expression. The data were expressed as the ratio of GAPDH normalized Hes1 expression of EDTA-treated to EDTA-untreated samples. DAPT treated cultures were compared to DMSO treated cultures. These values were log transformed for statistical analysis by t-test and graphed in Excel.
(In qPCR the cycle at which signal appears reflects the starting amount.)

Another assay deals with T1, gamma-secretase complex (Homo sapiens, UniProt P49768).
T1 construct: endogenous in cells; host or cells: BGN1 human embryonic stem cells, grown on mouse embryonic fibroblast feeders
T1 sequence (Q92542 34-709, other chains not shown): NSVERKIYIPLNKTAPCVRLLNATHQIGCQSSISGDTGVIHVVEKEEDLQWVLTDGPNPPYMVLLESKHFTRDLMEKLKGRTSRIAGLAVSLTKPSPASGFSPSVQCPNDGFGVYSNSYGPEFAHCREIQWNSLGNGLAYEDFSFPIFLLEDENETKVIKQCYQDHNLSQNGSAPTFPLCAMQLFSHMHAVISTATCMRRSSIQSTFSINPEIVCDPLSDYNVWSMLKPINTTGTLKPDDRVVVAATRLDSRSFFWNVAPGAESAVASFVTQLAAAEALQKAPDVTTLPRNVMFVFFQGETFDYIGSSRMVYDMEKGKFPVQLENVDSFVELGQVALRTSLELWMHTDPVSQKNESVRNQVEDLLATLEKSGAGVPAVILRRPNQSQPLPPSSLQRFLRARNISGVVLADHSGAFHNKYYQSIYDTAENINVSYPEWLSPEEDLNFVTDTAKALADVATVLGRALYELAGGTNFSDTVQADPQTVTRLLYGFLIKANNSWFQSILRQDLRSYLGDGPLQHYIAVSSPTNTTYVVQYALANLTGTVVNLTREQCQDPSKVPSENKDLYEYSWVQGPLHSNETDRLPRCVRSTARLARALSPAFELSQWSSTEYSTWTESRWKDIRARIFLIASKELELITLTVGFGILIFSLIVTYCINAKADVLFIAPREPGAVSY
T1 sequence (Q96BI3 whole entry, other chains not shown, further chain): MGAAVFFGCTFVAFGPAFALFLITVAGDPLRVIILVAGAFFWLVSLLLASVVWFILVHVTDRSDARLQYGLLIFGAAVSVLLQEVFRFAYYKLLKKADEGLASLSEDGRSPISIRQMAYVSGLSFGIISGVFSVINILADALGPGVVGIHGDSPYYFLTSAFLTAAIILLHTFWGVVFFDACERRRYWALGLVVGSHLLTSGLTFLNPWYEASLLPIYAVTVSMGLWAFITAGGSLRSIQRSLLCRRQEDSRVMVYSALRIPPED
T1 sequence (Q9NZ42 whole entry, other chains not shown, further chain): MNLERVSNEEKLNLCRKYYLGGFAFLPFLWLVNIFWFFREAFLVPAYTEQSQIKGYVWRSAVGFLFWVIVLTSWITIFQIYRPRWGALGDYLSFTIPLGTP
Description: Western blot for gamma-secretase cleaved Notch1 (NICD) in hES cells harvested with Trypsin/EDTA. The class given is cell-based. Conditions: BGN1 hES cells grown in 50 μM DAPT for 3 days, vs 0.5% DMSO. The method, then:
Western blots were done using standard procedures. In brief, protein content of samples was determined with a BCA micro protein assay (Pierce, Rockford, Ill.) and equal amounts of protein were loaded onto precast polyacrylamide mini-gels (Gradipore, Australia). Proteins were transferred to nylon membranes which were then incubated for 30 minutes in blocking buffer (tris buffered saline/0.1% tween 20/5% powdered milk). Primary antibodies were diluted in blocking buffer at the following ratios: bTAN20 and C651.6bHN were diluted 1:10; anti-Oct4 was diluted 1:100; anti-presenilin, nicastrin, cleaved NOTCH1 were diluted 1:1000 and anti-HDAC was used at a concentration of 0.5 μg/ml. Primary antibodies were incubated overnight at 4° C., followed by two five-minute washes and one 15-minute wash in tris-buffered saline/0.1% tween 20. Secondary antibodies were diluted in blocking buffer and incubated with the membranes for 45 minutes at room temperature. Washes were repeated as above and a final 15-minute wash was done with tris-buffered saline. ECL (Amersham, Buckinghamshire, England) was performed according to the manufacturer's instructions and autoradiographs were made.
To address the possibility that trypsin non-specifically generated the 110 kD Notch1 band, DAPT, a potent and specific gamma-secretase inhibitor, was used to treat the hES cells before harvesting. […]
On the technique in general: A western blot detects proteins with antibodies after separation by electrophoresis.

Assay [1] has as its system hES cells (BGN1 and BGN2). Description: Flow cytometry of SSEA4 and Notch1 expression in treated hES cell cultures. Conditions: for proportion of cells in Fr. A (SSEA4high/Notch1high, undifferentiated cells): 50 μM DAPT vs DMSO, four experiments. The format is cell-based, human. On the procedure: Cultures were harvested by Collagenase/trypsin passaging methods described above as an essentially single cell suspension, washed in 1×PBS, and fixed in 1% paraformaldehyde for 25 minutes on ice. The cells were washed in 1×PBS, blocked in 3% goat serum, and stained with primary antibodies for 30 minutes. to overnight at 4° C. The cells were washed in 1×PBS three times and stained with Secondary FITC or PE conjugated antibodies (Jackson Immunochemicals, Inc.) for 1 hour to overnight at 4° C. The cells were washed with 1×PBS three times and analyzed on a CyAn flow cytometer (DakoCytomation, Inc.).
Inhibition of gamma-secretase reduces the number of spontaneously differentiated cells in the culture. […] These experiments are diagramed in FIG. 9. hES cell master cultures were maintained with the manual passaging technique. A combination of Collagenase type IV treatment and Trypsin/EDTA exposure was used to passage the hES cells as single cells for no more than 10-12 passages before SSEA4 selection for early trypsin cultures, or were passaged more than 40 passages for late trypsin cultures. The cultures were selected for SSEA4 epitope expression using magnetic selection of SSEA4 antibody-stained cells. The retained fraction from the sort was plated and subjected to the treatment conditions. In some instances, SSEA4 selected cells were expanded for one or two passages. Treatment conditions were 50 μM DAPT, or 0.5% DMSO as carrier control. In some cases, these conditions were compared to untreated cells. The treated cultures were analyzed for SSEA4 expression by flow cytometry, immunohistochemistry, and EB formation.
(In general: A flow cytometer gives signals particle by particle.)

The subject of assay [2] is hES cells. Description: SSEA4 immunohistochemistry of treated hES cell cultures. To be noted: 50 μM DAPT vs DMSO treated cultures. The class given is cell-based, human. The method, then:
Cells on chamber slides were rinsed once with 1× PBS and fixed for 30 minutes in 4% PFA/4% sucrose in PBS pH7.4 at room temperature for surface staining, or in ice cold 100% methanol for 5 minutes at −20° C. followed by 4% PFA/4% sucrose in PBS for 10 minutes at room temperature for intracellular staining using the bTAN20 antibody. They were rinsed 3× in 1×PBS and blocked in 3% goat serum/1% PVP with or without 0.3% Triton-X100 in PBS for 30 minutes at 4° C. Primary antibodies were diluted in blocking solution and this solution was applied overnight at 4° C. to the cells. Cells were rinsed in 1×PBS and washed overnight with 3 changes of 1×PBS. Secondary antibodies were applied in blocking solution for 2 hours at 4° C. They were rinsed in 1×PBS then washed overnight with 3 changes of 1×PBS. Cell nuclei were stained with DAPI at 1 μg/ml in the first rinse for 10 minutes. The chambers were removed and slides were mounted in VectaShield mounting medium.
Inhibition of gamma-secretase reduces the number of spontaneously differentiated cells in the culture. […] These experiments are diagramed in FIG. 9. hES cell master cultures were maintained with the manual passaging technique. […] The treated cultures were analyzed for SSEA4 expression by flow cytometry, immunohistochemistry, and EB formation.

For assay [3], the system named is hES cells. Briefly: Embryoid body formation from late trypsin passaged hES cultures. The format is cell-based, human. To be noted: late trypsin passaged cultures maintained in DAPT vs DMSO vs untreated. On the procedure:
Embryoid bodies were formed from cultures that had been growing on Matrigel and exposed to the different treatments. These cultures were exposed to Collagenase type IV or Dispase (Gibco) for 10 minutes at 37° C. until a monolayer of cells lifted off of the dish. The monolayer was passed through a pipette tip until it was broken down to small clumps of approximately 500-1000 cells. These clumps were washed in 15% FBS/1% MEM nonessential amino acids/1 mM L-glutamine/penicillin (0.5 U/ml) and streptomycin (0.5 U/ml) twice by allowing them to settle by gravity, removing the supernatant, and resuspending the loose pellet. The cells were plated onto agarose coated Petri dishes in the same medium used for washing and allowed to grow for up to 10 days.
Inhibition of gamma-secretase reduces the number of spontaneously differentiated cells in the culture. […] These experiments are diagramed in FIG. 9. hES cell master cultures were maintained with the manual passaging technique. A combination of Collagenase type IV treatment and Trypsin/EDTA exposure was used to passage the hES cells as single cells for no more than 10-12 passages before SSEA4 selection for early trypsin cultures, or were passaged more than 40 passages for late trypsin cultures. […] The treated cultures were analyzed for SSEA4 expression by flow cytometry, immunohistochemistry, and EB formation.

[4] abbreviates: inhibitor treatment vs DMSO, 4 experiments, BGN1 and BGN2.

Consider `O=C(O)CN(CCN(CC(=O)O)CC(=O)O)CC(=O)O` [EDTA], for which, in the assay with Hes1 (2 mM EDTA 15 minutes, three independent experiments), the “Hes1 induction by EDTA exposure” value is reported as “up to 10 fold”.

In the case of `C[C@H](NC(=O)Cc1cc(F)cc(F)c1)C(=O)N[C@H](C(=O)OC(C)(C)C)c1ccccc1` [DAPT, N-[N-(3,5-Difluorophenacetyl-L-alanyl)]-S-phenylglycine t-Butyl Ester], the “generation of the NICD fragment (cleaved form of Notch1) upon Trypsin/EDTA exposure” value at gamma-secretase complex is given as “not generated”. The “Hes1 induction by EDTA in the presence of the inhibitor (GAPDH normalized expression ratio)” value in the assay on Hes1 (50 μM DAPT 4 hours to overnight, 2 mM EDTA 15 minutes, three independent experiments) is “less than two-fold”. Moreover, the “reduction in Hes1 expression with inhibitor treatment, significance” value in the assay with Hes1 (EDTA induction, DAPT vs DMSO, p=0.032, t-test) is reported as “significant”. Moreover, in assay [1] (BGN1 and BGN2), the “proportion of cells in Fr. A (SSEA4high/Notch1high, undifferentiated cells)” value is “small but significant increase”. Also, the “proportion of cells in Fr. A (SSEA4high/Notch1high, undifferentiated cells)” value in assay [1] (BGN1 and BGN2, listed as inhibitor) is recorded as “significantly increased”. For the same compound, in assay [1] (50 μM DAPT, average of four experiments, BGN1 and BGN2, DMSO control 30%, p=0.0243), the “cells in Fr. B (SSEA4low-neg/Notch1pos, differentiating cells)” value was determined as 15%. For the same compound, in assay [1] (DAPT vs DMSO and untreated, triplicate cultures), the “proportion of Fr. B (SSEA4low-neg/Notch1pos) cells in culture, in words” value was “reduced”. Moreover, in assay [1] (setting [4]), the “number of cells in Fr. A” value is listed as “remained unchanged” and the “number of cells in Fr. B” value was “significantly reduced”. Further, the “homogeneity of SSEA4 expression (immunohistochemical stain)” value in the assay on hES cells [2] is listed as “more homogenous”. For the same compound, the “morphology of embryoid bodies” value in the assay on hES cells [3] is recorded as “returned the EBs to a cystic morphology”.
